Like-named read-outs stand apart in the source and are kept apart here.
How the values were obtained:
[1] = system: Aβ deposition; assay: APP-T41 mice treated for 10 days, Aβ immunostaining; type: in vivo; settings: 5-month-old APP-T41 mice, i.p. for 10 days
Method: In a further experiment, a group of 5-month-old APP-T41 mice were treated with vehicle or 13A04 (i.p.) for 10 days. At this age, the mice are starting to deposit Aβ which can be quantified in brain sections using Aβ immunostaining.
Transgenic mice that overproduce FAD-mutant human APP reproduce important aspects of AD, including amyloid plaques, neurodegeneration, and cognitive deficits. APP-T41 mice which overexpress APP751^V717I, K670M/N671L in neurons develop amyloid pathology, neurodegeneration, and cognitive deficits.^43,44 Mice overexpressing human tau protein associated with familial forms of fronto-temporal dementia (a dementia characterized by extensive tangle formation) develop neurofibrillary tangles similar to the ones observed in AD and suffer from locomotor deficits around 10 months of age.^45 APP-T41 and Prp-tau^P301L mice^45 can be used to determine the in vivo efficacy of test compounds in treating AD-like diseases.
Compounds can also be tested for their ability to reverse cognitive deficits.

[2] = system: TGF-β signaling in hippocampal neurons; assay: RFP immunohistochemistry in SBE-lucRT reporter mice; type: in vivo, mouse
Description: To study TGF-β signaling at the cellular level, additional reporter mice were generated, which express a fusion protein consisting of luciferase, red fluorescent protein […], and thymidine kinase (TK) under control of the SBE promoter (i.e., SBE-lucRT mice).

[3] = system: TGF-β-responsive genes in MFB-F11 fibroblasts; assay: Microarray of TGF-β pathway gene expression in tgfb1−/− fibroblasts; type: cell-based, mouse; settings: 1, 5, 24 hours
Method: (§1) FIG. 1H is a graph showing the relative amount of surviving 6-7 DIV hippocampal neurons of E16 mice following exposure to culture medium (CM) alone, 13A04 (3 μM), or CM containing Aβ at 2 or 5 μM with TGF-β1 (10 ng/ml) or 13A04 (3 μM). After 24 hours, cultures were fixed and surviving cells were counted. Data represent mean±SEM, n=3-7 fields counted per plate. All conditions were compared to Aβ using the Mann-Whitney test (* p<0.05, ** p<0.01). FIG. 1I is a graph showing the relative gene expression levels of the indicated TGF-β-responsive genes induced in MFB-F11 fibroblasts stimulated with TGF-β1 (yellow) or 13A04 (blue) for 24 h. mRNA was extracted, labeled and hybridized to gene expression arrays tailored for the TGF-β pathway.
A microarray assay was used to identify changes in gene expression caused by stimulating tgfb1^−/− fibroblasts with TGF-β1 or 13A04. mRNA was harvested 1, 5, and 24 hours following stimulation of tgfb1^−/− fibroblasts with TGF-β1 (or control) and analyzed for differential expression of 128 genes related to TGF-β signaling, using a commercially available filter array (Superarray Bioscience Corp.; FIG. 1I). […]

[4] = system: TGF-β signaling (SBE-SEAP reporter) in MFB-F11 cells; type: cell-based, mouse; settings: for Relative TGF-β activity, fold change compared with vehicle: cell reporter assay
Method: All compounds were tested twice, in duplicate, using the MFB-F11 cell line. 80 compounds were selected for further study based on induction of the reporter gene in any of the replicates. These compounds were tested again in MFB-F11 or C6-H4 cells, either alone or in the presence of 100 pg/ml of TGF-β1, to test for synergistic activities.

[5] = system: primary hippocampal neurons from E16 mouse embryos; type: cell-based; settings: Aβ oligomers inducing 50-70% cell death; 13A04 3 μM, TGF-β1 10 ng/ml; 24 hours
Method: as §1
Moreover, the small-molecule TGF-β agonist was not toxic at 3 μM and 10 μM (not shown).
Primary mixed neuronal cultures are exposed to Aβ oligomers and treated with compounds (0 to 10 μM concentration) and cell survival is measured using lactate dehydrogenase (LDH) release or by counting 4,6-diamidino-2-phenylindole (DAPI)-stained cells. […] Neuritic dystrophy in 21 DIV neurons can also be measured by quantifying the tortuosity of neurites as described by Ferreira et al.^70 and modified by others. […] Further incubation of these cells with the present compounds provides a sensitive assay for neuroprotection.

[6] = system: TGF-β signaling (SBE-luc reporter) in brain; assay: Bioluminescence and tissue luciferase in SBE-luc reporter mice; type: in vivo, mouse; settings: i.p. or s.q. injection; FIG. 3D
Description: Transgenic mice harboring the SBE-luc reporter gene were generated and used to test the present compositions in vivo. These “reporter mice” mice express SBE-luc (i.e., “the transgene”) in all cells of the body.^1,54 Intraperitoneal injection of luciferin into SBE-luc mice produces bioluminescence generated by luciferase and photons penetrating the skull can be imaged using sensitive camera systems.^1,54
To determine whether 3A and its analogs are bioactive in vivo and able to penetrate the blood brain barrier (BBB), TGF-β1, 3A, 22B02, or 13A04 were injected into reporter mice i.p. or s.q. The animals were then sacrificed at the indicated times following injection. […] There was no obvious activation of the reporter in other organs.
Bioactivity data were confirmed by biochemical measurements of tissue luciferase in hippocampal homogenates (FIG. 3E).
Two-month old SBE-luciferase transgenic mice receive different concentrations of a test compound either s.q., i.p., or orally by gavage. […] Following administration of the test or control compounds, mice are injected with luciferin i.p. At, e.g., 2, 8, and 16 hours following injection of luciferin, the mice are imaged to detect bioluminescence as described above. Brains may be harvested 16 hours following test compound injection, and may be divided sagittally. […]

[7] = system: TGF-β reporter gene in hippocampus; assay: Luciferase activity in SBE-luc mouse hippocampus; type: in vivo; settings: 30 mg/kg i.p.; five hours after injection; SBE-luc mice
Method: In another experiment performed to asses the ability of the present compounds to activate TGF-β signaling in animals, SBE-luc mice were given either PBS or the 11H compound via i.p. injections as described in Example 10. Following drug or PBS injection, mice were anesthetized with chloral hydrate and perfused with saline. Brains were dissected and snap-frozen. Hippocampal tissues were assayed for luciferase activity.
(§2) SBE-luc mice (T9-7F), 2-4 months of age, 4-5 mice per group, were given either the 11H compound at 30 mg/kg via i.p. injections, or PBS as a control. The 11H compound was completely dissolved in PBS at the concentration of 3 mg/ml. This working solution was given to mice at 10 μl/g body weight to achieve the desired level of 30 mg/kg. Five hours following drug or PBS injection, mice were anesthetized with chloral hydrate and perfused with saline. Brains were dissected and snap-frozen. Hippocampal tissues were homogenized in 100 μl of 1× luciferase assay buffer and 20 μl of the resulting supernatant was used for luciferase assays.

[8] = system: fibroblasts lacking Smad2, Smad3 or Smad4; assay: SBE reporter signaling in fibroblasts lacking elements of the TGF-β signaling pathway; type: cell-based; settings: Smad2 (FIG. 2B) or Smad3 knock-out fibroblasts
Description: To understand how the TGF-β signaling agonists function and identify molecular genetic targets in cells, fibroblasts lacking different elements of the TGF-β3 signaling pathway, including Smad2, Smad3, and Smad4, were used in combination with plasmids encoding different inhibitors of the TGF-β signaling pathway to study TGF-β agonists in different backgrounds. For reference, the canonical TGF-β signaling pathway is illustrated in FIG. 2A. The biological actions of TGF-β1 are mediated through interactions with the type 2 TGF beta receptor (TBR2) 2 and the type I TGF beta receptor (TBRI) 3. Betaglycan 4 may participate in the binding of TGF-β1. Receptor activation leads to the phosphorylation of Smad proteins, such as Smad 2/3 5 and Smad 4 6, which translocate to the nucleus 7 to bind to the Smad DNA-binding element (SBE) 8, present in numerous genes, in combination with transcription factors (TF) 9. Smad 7 10 is inhibitory with respect to Smad 2/3 5 phosphorylation. Alternative signaling involves p38 11 and the MAP kinase pathway. TAB1 12 activates TAK1 13, which activates p38 11.
Because Smad2 and Smad3 can substitute for each other, results with Smad2 or Smad3 knock-out fibroblasts were more difficult to interpret. Nonetheless, the synergistic effect of TGF-β1 and 11H was blocked in the absence of Smad2 (FIG. 2B) or Smad3 (not shown). In these assays, signaling is reported via SBE elements, which are specific elements that bind Smad proteins. Thus, the 11H compound must signal through this element. Without being limited to theory, it is believed that the 3A compound functions as a competitive agonist of Smad binding to the SBE, representing a novel target and mode of action.

[9] = Dissolution in PBS; type: physicochemical
Method: as §2

[10] = system: HDAC activity in HeLa nuclear extracts (HDAC 1, HDAC 2, SIRT 1); settings: FIG. 8B
Description: A commercially available assay was used to measure HDAC inhibitory activity of the present small-molecule compounds.

[11] = system: TGF-β signaling in the brain; assay: SBE-luc mice after lipopolysaccharide (LPS) administration; type: in vivo, mouse
Description: SBE-luc mice can also be used to monitor activation of TGF-β signaling in response to glial activation after lipopolysaccharide (LPS) administration.

[12] = system: HDAC 1 and 2; settings: read-out: 1050 (HDAC 1 and 2 inhibition); cited from earlier work

With `CC(C)CN(CC(=O)N(CCc1c[nH]c2ccccc12)Cc1ccccc1)C(=O)c1ccco1` [Compound 13A04] the “Tolerability / side effects” value [1] was “well tolerated and no side effects were observed”, the “Aβ deposition versus controls” value ([1]; not statistically significant) was “trend towards reduced Aβ deposition” and the “TGF-β signaling in the vasculature” value [2] was “No activation”. The “Reporter gene and TGF-β signaling in hippocampal neurons” value ([2]; RFP immunohistochemistry) was “activates the reporter gene and TGF-β signaling in hippocampal neurons”, the “Expression of TGF-β signaling genes (Fos, Jun, Myc, Smad1, Smad2, Smad3, Interleukin-6)” value [3] was “induced” and the “Relative TGF-β activity, fold change compared with vehicle” value (shortened to “Relative TGF-β activity, fold change”) ([4]; 3 μM) was 2.5 fold. For the same compound, the “Relative TGF-β activity, fold change” value ([4]; 10 μM) was 6.3 fold, the “Relative TGF-β activity, fold change” value ([4]; 30 μM) was 17.6 fold and the “Relative TGF-β activity, fold change” value ([4]; 100 μM) was 20.9 fold. For the same compound, the “Protection of neurons against Aβ toxicity (survival)” value [5] was “consistently protected neurons and increased survival” and the “Reporter activation (bioluminescence) in living mice” value [6] was “dose-dependent manner”.

For `C/C(=C\c1ccccc1)CN(CC1CCNCC1)C(=O)NC1CCCCC1` [Compound 11H, (E)-3-cyclohexyl-1-(2-methyl-3-phenylallyl)-1-(piperidin-4-ylmethyl)urea], the “Activation of the TGF-β reporter gene in hippocampi compared to PBS” value [7] was “twice the levels”, the “Synergistic effect with TGF-β1 in the absence of Smad2 or Smad3” value [8] was “blocked” and the “Concentration completely dissolved in PBS” value [9] was at least 3000 µg/mL. The TGF-β agonist activity ([4]; data of FIGS. 1A-1J) was “TGF-β-agonists”.

In the case of trichostatin A, the “Reduction of HDAC activity” value [10] is reported as over 90%.

In the case of `CC(C(=O)O)c1ccc(-c2ccccc2)c(F)c1` (stereo not shown) [flurbiprofen], the “TGF-β signaling in the brain after LPS (bioluminescence)” value ([11]; FIG. 4E) is reported as “strongly reduced” and the “Microglial activation after LPS” value ([11]; data not shown) is reported as “strongly reduced”.

In the case of `N#Cc1ccc(-c2ccc(OCCCCCCC(=O)NO)cc2)cc1` [Compound A-161906], the IC50 [12] is given as 9 nM.
